Laboratory results published in US7674594B2, “Screening assay for inhibitors of TRPA1 activation by a lower alkyl phenol” (Redpoint Bio Corporation, priority 2006, dated 2010).
“Also recorded” adds a separate entry of the source.

Experiments:
hTRPA1 [1] = biological target: T1, hTRPA1 (Homo sapiens, UniProt O75762); assay: Membrane potential dye fluorescence assay (FLIPR/FLEXstation), activation of hTRPA1 in transfected HEK293 cells; assay type: cell-based
T1 construct: The full length hTRPA1 was amplified by PCR with Kpn1 and Xho1 restriction enzyme sites; expressed in transfected cells; also transient transfection
Method: Once expression of TRPA1 was confirmed, 100 μl of the Blue or Red FMP dye (Molecular Devices) was added to each well of plates seeded with the transiently transfected cells. The plate was then incubated in a 37° C./5% CO2 incubator for 1 hour. The plate was read in a FLEXStation microplate reader (Molecular Devices) with an excitation of 530 nm and an emission of 565 nm. The fluorescence was monitored for 3 minutes upon exposure of the cells to a TRPA1 activating agent (e.g., cinnamaldehyde).
(§1) Samples in a 384-well plate were evaluated in a 5 minute assay on the FLIPR-Tetra™ (Molecular Devices). The assay was performed on a FLIPR™ using the excitation 510-545 nm and emission 565-625 nm filter sets. TRPA1-Transfected HEK cells, 15,000/well, were seeded overnight on poly-D-lysine coated 384 well plates in 20 μl media. Membrane Potential Assay Dye Red (Molecular Devices), 20 μl/well, was added and the plates incubated for 1 hour in a 37° C. and 5% CO2 incubator. The plates were then removed from the incubator and equilibrated to room temperature for 15 minutes before reading on the FLIPR®. The plates were read on the FLIPR® for a total of 3 minutes. Baseline fluorescence was obtained on the FLIPR® for 10 seconds followed by addition (typically 10 μl) of each agonist by the FLIPR® and read for an additional 2 minutes and 50 seconds.

parental HEK293 cells = assay: Membrane potential dye fluorescence assay in parental (non-transfected) HEK293 cells; assay type: cell-based, human; settings: cells not expressing TRPA1
[2] = Human sensory panel, detection threshold in water; assay type: in vivo; settings: FIG. 2B
hTRPV1 = biological target: T2, hTRPV1 (Homo sapiens, UniProt Q8NER1); assay: Membrane potential dye fluorescence assay, HEK293 cells expressing hTRPV1; assay type: cell-based; settings: HEK293, increasing concentrations, FIG. 6
T2 construct: expressed in transfected cells
Method: as §1
(§2) HEK293 cells were stably transfected with one of hTRPA1, hTRPV1 or hTRPM5. CHO cells were stably transfected with one of hTRPM4B or TRPM5. Parental HEK293 and CHO cells were also used as a negative control.

hTRPM4B = biological target: T3, hTRPM4B (Homo sapiens, UniProt Q8TD43); assay: Membrane potential dye fluorescence assay, CHO cells expressing hTRPM4B; assay type: cell-based; settings: CHO, increasing concentrations, FIG. 6
T3 construct: expressed in transfected cells
Method: as §1, §2

hTRPM5 = biological target: T4, hTRPM5 (Homo sapiens, UniProt Q9NZQ8); assay: Membrane potential dye fluorescence assay, HEK293 or CHO cells expressing hTRPM5; assay type: cell-based; settings: increasing concentrations, FIG. 6
T4 construct: expressed in transfected cells
T4 sequence (Q9NZQ8 1-1165): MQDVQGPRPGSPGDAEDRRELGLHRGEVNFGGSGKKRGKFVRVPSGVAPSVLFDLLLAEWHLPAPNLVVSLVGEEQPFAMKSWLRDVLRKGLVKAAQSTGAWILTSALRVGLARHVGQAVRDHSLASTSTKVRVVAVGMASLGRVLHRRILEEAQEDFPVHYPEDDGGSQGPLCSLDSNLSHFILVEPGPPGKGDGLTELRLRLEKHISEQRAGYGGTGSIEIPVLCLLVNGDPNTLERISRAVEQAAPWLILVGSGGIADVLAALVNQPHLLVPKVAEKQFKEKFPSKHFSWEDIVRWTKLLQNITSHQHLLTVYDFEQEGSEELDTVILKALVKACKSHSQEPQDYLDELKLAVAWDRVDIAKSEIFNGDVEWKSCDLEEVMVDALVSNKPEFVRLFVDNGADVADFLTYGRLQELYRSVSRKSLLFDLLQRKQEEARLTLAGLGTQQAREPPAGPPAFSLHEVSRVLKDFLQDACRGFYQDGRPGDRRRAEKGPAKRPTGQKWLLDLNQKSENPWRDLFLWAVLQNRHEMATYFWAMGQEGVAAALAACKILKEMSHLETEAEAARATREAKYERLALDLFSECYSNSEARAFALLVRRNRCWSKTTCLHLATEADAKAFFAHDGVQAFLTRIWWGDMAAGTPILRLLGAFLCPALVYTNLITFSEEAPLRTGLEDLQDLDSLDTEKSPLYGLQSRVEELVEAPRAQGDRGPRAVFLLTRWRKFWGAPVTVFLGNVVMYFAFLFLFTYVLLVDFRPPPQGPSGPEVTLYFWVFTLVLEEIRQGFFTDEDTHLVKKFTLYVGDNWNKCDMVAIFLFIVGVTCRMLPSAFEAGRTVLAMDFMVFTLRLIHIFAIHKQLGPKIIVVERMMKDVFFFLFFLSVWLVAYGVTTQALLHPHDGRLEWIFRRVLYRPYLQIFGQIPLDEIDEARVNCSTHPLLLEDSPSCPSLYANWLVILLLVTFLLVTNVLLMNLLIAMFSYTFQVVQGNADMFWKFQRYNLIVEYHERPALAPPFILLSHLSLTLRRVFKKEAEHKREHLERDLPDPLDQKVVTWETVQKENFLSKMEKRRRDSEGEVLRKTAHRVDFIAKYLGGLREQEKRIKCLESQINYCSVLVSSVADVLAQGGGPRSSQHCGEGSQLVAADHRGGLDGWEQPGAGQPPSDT
Method: as §1, §2

mice = assay: Taste aversion (lick) assay in mice; assay type: in vivo, mouse; settings: mice, increasing concentrations
Method: In this assay, the ability of identified lower alkyl phenols to evoke taste aversion in mice was measured. Mice were exposed to increasing concentrations of lower alkyl phenols.

hTRPA1 [3] = biological target: T1, hTRPA1; assay: siRNA knockdown of hTRPA1 in hTRPA1 HEK293 cells, membrane potential dye response; assay type: cell-based; settings: increasing concentrations
Method: HEK293 cells were transiently transfected with one of siRNA for hTRPA1, and one of Silencer pre-designed and validated siRNA (Ambion), GAPDH or negative siRNA control. 1×10^6 hTRPA1 stably transfected HEK 293 cells were plated in 35 mm dishes overnight. The next day 10 μM of each siRNA was transfected into these cells using siPORT Amine (Ambion) and incubated overnight. The following day, transfected cells were trypsinized and seeded into 384-well black, clear bottom, poly-D-lysine plates (Corning) at a density of 15,000 cells/well in a 20 μl volume and incubated in a 37° C./5% CO2 incubator overnight.
The cells were then loaded with membrane potential sensitive dye and subjected to the fluorescence assay described in Example 2.

T1 sequence (O75762 whole entry): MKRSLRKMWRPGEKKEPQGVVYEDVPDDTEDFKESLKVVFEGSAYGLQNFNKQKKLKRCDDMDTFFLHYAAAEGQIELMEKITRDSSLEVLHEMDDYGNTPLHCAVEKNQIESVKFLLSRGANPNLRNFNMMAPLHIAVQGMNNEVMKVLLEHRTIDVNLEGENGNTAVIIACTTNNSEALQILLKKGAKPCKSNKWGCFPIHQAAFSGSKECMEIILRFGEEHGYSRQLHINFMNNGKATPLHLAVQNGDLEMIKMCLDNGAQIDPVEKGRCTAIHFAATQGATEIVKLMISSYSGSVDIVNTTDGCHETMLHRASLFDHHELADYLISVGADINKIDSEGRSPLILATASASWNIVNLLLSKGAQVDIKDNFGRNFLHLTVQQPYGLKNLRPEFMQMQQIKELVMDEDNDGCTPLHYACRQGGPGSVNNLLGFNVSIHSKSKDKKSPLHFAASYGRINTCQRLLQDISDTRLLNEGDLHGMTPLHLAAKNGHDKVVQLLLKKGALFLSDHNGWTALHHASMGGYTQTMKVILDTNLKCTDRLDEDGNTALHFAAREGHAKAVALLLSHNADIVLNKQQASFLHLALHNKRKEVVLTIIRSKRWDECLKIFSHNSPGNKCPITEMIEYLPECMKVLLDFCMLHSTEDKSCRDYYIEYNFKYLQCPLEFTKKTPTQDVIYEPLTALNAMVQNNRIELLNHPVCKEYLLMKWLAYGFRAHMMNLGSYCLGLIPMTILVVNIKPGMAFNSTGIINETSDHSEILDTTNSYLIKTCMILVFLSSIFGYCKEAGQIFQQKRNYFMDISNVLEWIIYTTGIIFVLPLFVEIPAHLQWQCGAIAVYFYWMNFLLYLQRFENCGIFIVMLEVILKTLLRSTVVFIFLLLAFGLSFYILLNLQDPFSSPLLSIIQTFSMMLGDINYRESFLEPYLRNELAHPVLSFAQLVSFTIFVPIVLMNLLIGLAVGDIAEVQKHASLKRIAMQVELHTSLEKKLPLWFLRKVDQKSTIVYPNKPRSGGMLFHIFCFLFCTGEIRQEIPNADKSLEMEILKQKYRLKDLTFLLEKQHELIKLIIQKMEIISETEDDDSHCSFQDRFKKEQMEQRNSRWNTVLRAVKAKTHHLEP
T2 sequence (Q8NER1 whole entry): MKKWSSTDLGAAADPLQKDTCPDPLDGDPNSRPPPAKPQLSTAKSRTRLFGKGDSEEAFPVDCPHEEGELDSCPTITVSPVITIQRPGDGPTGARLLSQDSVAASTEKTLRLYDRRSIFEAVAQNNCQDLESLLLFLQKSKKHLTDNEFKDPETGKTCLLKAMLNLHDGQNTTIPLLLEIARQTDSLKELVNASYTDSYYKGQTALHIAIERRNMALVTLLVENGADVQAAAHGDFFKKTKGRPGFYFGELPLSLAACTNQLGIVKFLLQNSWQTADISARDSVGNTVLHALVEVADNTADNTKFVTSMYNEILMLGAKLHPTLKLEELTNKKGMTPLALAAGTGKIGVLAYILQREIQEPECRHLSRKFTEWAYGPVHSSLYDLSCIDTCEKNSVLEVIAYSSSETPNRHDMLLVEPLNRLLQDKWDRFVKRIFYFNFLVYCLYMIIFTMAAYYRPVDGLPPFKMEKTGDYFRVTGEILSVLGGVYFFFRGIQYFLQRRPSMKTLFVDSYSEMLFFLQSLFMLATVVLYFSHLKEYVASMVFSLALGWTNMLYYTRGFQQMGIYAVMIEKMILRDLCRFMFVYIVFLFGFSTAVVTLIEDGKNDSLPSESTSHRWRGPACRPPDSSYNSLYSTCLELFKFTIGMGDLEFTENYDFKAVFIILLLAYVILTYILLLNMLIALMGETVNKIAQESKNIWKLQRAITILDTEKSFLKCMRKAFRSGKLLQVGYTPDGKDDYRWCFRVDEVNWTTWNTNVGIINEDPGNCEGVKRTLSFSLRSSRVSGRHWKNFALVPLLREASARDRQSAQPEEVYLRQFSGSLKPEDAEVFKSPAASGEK
T3 sequence (Q8TD43 whole entry): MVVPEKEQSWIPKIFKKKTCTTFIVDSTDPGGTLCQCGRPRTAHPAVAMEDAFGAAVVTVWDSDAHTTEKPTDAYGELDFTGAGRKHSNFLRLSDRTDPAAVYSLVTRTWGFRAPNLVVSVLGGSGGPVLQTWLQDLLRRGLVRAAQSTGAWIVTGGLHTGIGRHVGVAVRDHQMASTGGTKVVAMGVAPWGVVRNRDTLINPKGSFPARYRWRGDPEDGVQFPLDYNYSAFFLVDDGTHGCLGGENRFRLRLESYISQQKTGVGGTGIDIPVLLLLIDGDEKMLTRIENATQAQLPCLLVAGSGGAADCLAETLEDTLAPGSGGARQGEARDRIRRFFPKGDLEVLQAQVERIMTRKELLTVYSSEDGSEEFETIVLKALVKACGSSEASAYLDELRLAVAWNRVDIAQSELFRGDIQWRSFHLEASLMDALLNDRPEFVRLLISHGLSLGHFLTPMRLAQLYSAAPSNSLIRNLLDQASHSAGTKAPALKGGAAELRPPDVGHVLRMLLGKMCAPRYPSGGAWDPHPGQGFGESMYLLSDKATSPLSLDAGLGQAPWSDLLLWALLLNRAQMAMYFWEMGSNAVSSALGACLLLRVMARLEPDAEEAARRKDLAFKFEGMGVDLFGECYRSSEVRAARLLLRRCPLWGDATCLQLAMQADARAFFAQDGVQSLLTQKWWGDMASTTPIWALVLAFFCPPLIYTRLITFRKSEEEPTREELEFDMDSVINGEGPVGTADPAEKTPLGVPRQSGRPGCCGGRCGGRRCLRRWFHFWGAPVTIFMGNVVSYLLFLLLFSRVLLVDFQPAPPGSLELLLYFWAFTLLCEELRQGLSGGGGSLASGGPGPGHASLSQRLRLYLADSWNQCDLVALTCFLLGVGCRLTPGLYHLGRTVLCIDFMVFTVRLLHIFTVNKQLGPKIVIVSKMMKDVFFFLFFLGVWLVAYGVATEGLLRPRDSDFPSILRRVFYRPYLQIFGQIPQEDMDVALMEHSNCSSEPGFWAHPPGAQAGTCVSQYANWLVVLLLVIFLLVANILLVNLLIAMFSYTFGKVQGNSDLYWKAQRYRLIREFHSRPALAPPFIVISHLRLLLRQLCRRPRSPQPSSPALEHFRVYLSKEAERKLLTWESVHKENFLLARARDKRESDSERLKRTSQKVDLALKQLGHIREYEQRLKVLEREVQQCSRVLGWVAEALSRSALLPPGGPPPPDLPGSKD

Cc1ccc(C(C)C)c(O)c1 [Thymol]
activation of TRPA1 over standard value from cells not expressing TRPA1 (hTRPA1 [1]; at 10 μM, FIG. 3B): about 7 fold
TRPA1 activation / agonist activity (in words) (hTRPA1 [1]; hTRPA1 HEK293 cells, increase in fluorescence of membrane potential dye): at a level similar to that of cinnamaldehyde; also recorded: generated an increase in relative fluorescence
response of parental HEK293 cells (in words) (parental HEK293 cells): no change in activation
average detection threshold in water [2]: approximately 5 μM
response of cells expressing hTRPV1 (in words) (hTRPV1): did not generate the same increase in relative fluorescence
response of cells expressing hTRPM4B (in words) (hTRPM4B): did not generate the same increase in relative fluorescence
response of cells expressing hTRPM5 (in words) (hTRPM5): did not generate the same increase in relative fluorescence
taste aversion, licks/trial (in words) (mice): a decrease in licks/trial
fluorescence response of cells transfected with hTRPA1 siRNA versus GAPDH or negative siRNA control (in words) (hTRPA1 [3]): did not increase as much as
